Experimental data: US8445491B2, “Wnt protein signalling inhibitors” (The Board of Regents of the University of Texas System, priority 2008, dated 2013)

Experiments:
[1] = system: lung cancer and colorectal cancer cells; assay: cancer cell growth study (Cell Titer Glo); format: cell-based; details: 6 days
Method: FIGS. 7A-D. Chemical inhibition of Wnt-mediated cellular responses in cancer. FIG. 7A. Growth-inhibitory effects of IWR and IWP compounds on cancerous cells. Cells derived from either lung or colon cancer, with known molecular changes that result in aberrant Wnt pathway response, were treated with increasing concentrations of either IWR-4 or IWP-1 for 6 days with medium and compounds replenished daily. Cell viability was measured using Cell-Titer Glo assays. FIG. 7B. Biochemical changes of Wnt pathway components in cancerous cells treated with either IWR or IWP compounds. Lysates from H460, or DLD-1 cells were treated with IWR or IWP and Western blotted for either Dvl2, Axin2, Axin1, or Actin. Whereas both cell lines express […], Axin2 expression is absent in H460 cells. FIG. 7C. Genetic evidence for non-β-catenin dependent Wnt-mediated signalling in cancerous cells. […]
In experiments involving IWR and IWP treatments, cancer cells were seeded into a 24 well format (2.5K cells/well) in the presence of the noted Wnt pathway inhibitors (0.5% DMSO final) Media and compound changed every 24 hours for 5 days. On day 6, ATP levels were quantitated via cell titer glo assay (Promega). […] ATP levels were measured 120 hrs later via Cell Titer Glo assay (Promega).

[2] = system: caudal fin regeneration in zebrafish; assay: caudal fin regeneration assay in zebrafish; format: in vivo; details: for caudal fin regeneration after mechanical resection: zebrafish, compound in water 10 μM, 4 days
Method: FIG. 25. […] Arrows indicate the points of resection.
(§1) 6 month-old zebrafish were incubated 8 or 14 days at 28.5° C. in aquarium water supplemented with 10 μM IWR or in 0.1% DMSO as a control. Fish were fed standard diet, and solutions were changed daily. At the end of the exposure, zebrafish were incubated in 1 mM BrdU in aquarium water for 2 hrs at room temperature, then washed several times in aquarium water, anesthetized with 0.1% Tricaine, and fixed in 4% paraformaldehyde for 48 hrs at 4° C. The intestine was dissected out, dehydrated, paraffin embedded and sectioned at […] intervals. Sections were stained with Hematoxylin and Eosin or processed for BrdU immunohistochemistry as described (Shepard et al., 2005). Sections from 8 animals each from IWR and DMSO groups were independently scored by four blinded observers. The total number of intestinal folds and total number of BrdU-positive nuclei in the mid and distal sections of the intestine were counted from each section. For caudal fin regeneration assays, zebrafish, 3-6 months of age, were anaesthetized in 0.2% Tricaine and half of the fin was resected using a razor blade to remove Amputees were reared at 31° C. in tanks containing either 300 ml of water with DMSO or IWR (10 μM). Water and compounds were replenished daily for a total assay period of 4 days.

Wnt3A = Wnt3A phase separation (lipidation) assay in HEK 293 cells; format: cell-based, human; details: detergent solubility fractionation assay
Method: Biochemical studies involving L-Wnt-STF or DLD-1 cells were performed in either 48- or 6-well format with IWR (10 μM) or IWP (5 μM) compounds and/or cycloheximide (100 μM) in a 48 hr assay period. Targeting of APC using RNAi in L-cells was achieved by transfecting cells with SMARTPool APC siRNAs (50 nM; Dharmacon). E-cadherin depletion studies were performed at 4° C. using DLD-1 cells lysed in PBS/1% NP-40/protease inhibitors. For Wnt3A phase separation assays, murine Porcupine (C isoform) and human Wnt3A-myc were transfected into HEK 293 cells (6 well format, 400K cells/well) as appropriate using Effectene transfection reagent (QIAGEN). After 48 hrs of incubation, cells were lysed for 15 min, RT with PL buffer (distilled water, 10 mM tris-HCl, 150 mM NaCl)/1% TritionX-114. Lysate was briefly chilled on ice, pelleted for 10 min 4° C., and the supernatant combined with an equal volume of PL buffer/3.5% TX-114. Solutions were rotated for 15 min at 4° C., placed at 37° C. for 5 mM followed by an additional centrifugation for 5 mM at 2000 g, RT. Distinct phases were collected and combined with PL buffer to a total volume of 1 mL Samples were chilled on ice, ConA sepharose (GE Healthcare) added, and samples rotated for 2 hrs at 4° C. Beads washed 2× with PL buffer, and a Western blot performed with eluted proteins using an anti-c-myc antibody. […]

[3] = system: Wnt/β-catenin pathway response induced by Wnt1, Wnt2, or Wnt3a; assay: STF reporter, pathway activity induced by Wnt1, Wnt2 or Wnt3a; format: cell-based; details: FL normalized to RL
Method: FIGS. 9A-C. […] FIG. 9A. Summary of results relating to IWR and IWP compounds from the screening process. Wnt pathway tests were performed in either cells responding to autonomously-produced Wnt protein (L-Wnt-STF cells) or exogenously provided Wnt in conditioned medium (HEK293 cells). FIG. 9B. […] Left: schematic of Wnt-Gaussia luciferase (Wnt-GL) fusion protein used to monitor levels of secreted Wnt protein in the cell medium. Right: levels of Wnt-GL but not GL secreted from cells treated with IWP compounds are decreased as compared to cells treated with carrier. The Wnt-GL protein elicits levels of Wnt/β-catenin pathway response similar to that of Wnt3a protein (data not shown). FIG. 9C. […] FL activity was normalized to control RL activity as before.

[4] = system: zebrafish gastrointestinal (GI) tract; assay: homeostatic renewal of the zebrafish GI tract (BrdU incorporation, histology); format: in vivo
Method: as §1

Wnt/β-catenin pathway = assay: Western blot of Wnt/β-catenin pathway markers (LRP6 and Dvl2 phosphorylation, β-catenin accumulation) in L-Wnt-STF cells; format: cell-based, mouse; details: L-Wnt cells
Source text: FIG. 3. Biochemical evidence for Wnt/β-catenin pathway inhibition by IWR and IWP compounds. […] Cellular lysates were subjected to Western blot analysis to determine levels of LRP6 and Dvl2 phosphorylation, and β-catenin accumulation, all biochemical events associated with Wnt/β-catenin pathway activity. Predictably, IWPs blocked all three biochemical events, whereas IWRs appear to block β-catenin accumulation without affecting LRP6 and Dv12 phosphorylation. Kif3A and tubulin serve as loading controls.
(§2) Biochemical studies involving L-Wnt-STF or DLD-1 cells were performed in either 48- or 6-well format with IWR (10 μM) or IWP (5 μM) compounds and/or cycloheximide (100 μM) in a 48 hr assay period. Targeting of APC using RNAi in L-cells was achieved by transfecting cells with SMARTPool APC siRNAs (50 nM; Dharmacon). E-cadherin depletion studies were performed at 4° C. using DLD-1 cells lysed in PBS/1% NP-40/protease inhibitors. For Wnt3A phase separation assays, murine Porcupine (C isoform) and human Wnt3A-myc were transfected into HEK 293 cells (6 well format, 400K cells/well) as appropriate using Effectene transfection reagent (QIAGEN). After 48 hrs of incubation, cells were lysed for 15 min, RT with PL buffer (distilled water, 10 mM tris-HCl, 150 mM NaCl)/1% TritionX-114. […]

β-catenin = β-catenin accumulation in L-cells treated with APC siRNAs; format: cell-based; details: mouse L-cells treated with APC siRNAs
Source text: FIGS. 5A-H. Stabilization of the Axin2 destruction complex by IWR compounds. FIG. 5A. IWR compounds block β-catenin accumulation induced by loss of APC tumor suppressor. […] FIG. 5B. IWRs block aberrant Wnt/β-catenin pathway activity in the colorectal cancer (CRC) cells. Aberrant Wnt/β-catenin pathway activity in DLD-1 cells, CRC cells which harbor a loss-of-function mutation in APC, is abrogated by IWR compounds. Pathway activity was monitored using the STF reporter and normalized to RL control reporter as before. FIG. 5C. IWRs induce accumulation of Axin2 protein. Western blot analysis of proteins involved in regulating β-catenin levels in DLD-1 cells reveal accumulation of Axin2 protein in cells treated with IWR compounds with little change in expression levels of other pathway components. Note that the APC protein is truncated in these cells. FIG. 5D. Levels of β-catenin in CRC cells available for Wnt response are decreased in the presence of IWR compounds. […] FIG. 5E. IWR stabilizes Axin2 protein. Rapid destruction of Axin2 protein is apparent in DLD-1 cells treated with the protein synthesis inhibitor cycloheximide. […] FIG. 5F. […] FIG. 5G. […] FIG. 5H. A proposed model of IWR action. Addition of IWR to cells induces stabilization of Axin2 protein with consequential increase in β-catenin destruction. […]

[5] = system: Axin2 and β-catenin in DLD-1 cells; assay: biochemical studies of destruction complex components in DLD-1 cells (Western blot, E-cadherin depletion, cycloheximide); format: cell-based
Source text: FIGS. 5A-H. Stabilization of the Axin2 destruction complex by IWR compounds. FIG. 5A. IWR compounds block β-catenin accumulation induced by loss of APC tumor suppressor. […] FIG. 5B. IWRs block aberrant Wnt/β-catenin pathway activity in the colorectal cancer (CRC) cells. Aberrant Wnt/β-catenin pathway activity in DLD-1 cells, CRC cells which harbor a loss-of-function mutation in APC, is abrogated by IWR compounds. Pathway activity was monitored using the STF reporter and normalized to RL control reporter as before. FIG. 5C. IWRs induce accumulation of Axin2 protein. Western blot analysis of proteins involved in regulating β-catenin levels in DLD-1 cells reveal accumulation of Axin2 protein in cells treated with IWR compounds with little change in expression levels of other pathway components. Note that the APC protein is truncated in these cells. FIG. 5D. Levels of β-catenin in CRC cells available for Wnt response are decreased in the presence of IWR compounds. […] FIG. 5E. IWR stabilizes Axin2 protein. Rapid destruction of Axin2 protein is apparent in DLD-1 cells treated with the protein synthesis inhibitor cycloheximide. […] FIG. 5F. […] FIG. 5G. […] FIG. 5H. A proposed model of IWR action. Addition of IWR to cells induces stabilization of Axin2 protein with consequential increase in β-catenin destruction.
as §2, with “Targeting” for “Biochemical studies involving L-Wnt-STF or DLD-1 cells were performed in either 48- or 6-well format with IWR (10 μM) or IWP (5 μM) compounds and/or cycloheximide (100 μM) in a 48 hr assay period. Targeting”, “TritionX-114. Lysate was briefly chilled on ice, pelleted for 10 min 4° C., and the supernatant combined with an equal volume of PL buffer/3.5% TX-114.” for “TritionX-114.”

| Compound | inhibition of cancerous cell growth [1] | caudal fin regeneration after mechanical resection [2] | levels of lipidated Wnt3A (Wnt3A) | pathway activity induced by Wnt1, Wnt2, or Wnt3a [3] | fin regeneration after removal of the chemical ([2]; zebrafish bred 7 d in water containing compound, then removal) | adverse signs in treated fish ([4]; zebrafish treated for periods longer than 4 days) | BrdU-labeled cells at the base of intestinal folds ([4]; zebrafish, 10 μM in water, 8 days) | accumulation of β-catenin (Wnt/β-catenin pathway) | β-catenin accumulation induced by loss of APC (β-catenin) | levels of β-catenin not bound to E-cadherin ([5]; DLD-1 cells) | Axin2 protein turn-over ([5]; DLD-1 cells with cycloheximide) | expression of Wnt/β-catenin target gene Axin2 ([5]; DLD-1 cells, exposure for 2 h) |
| --- | --- | --- | --- | --- | --- | --- | --- | --- | --- | --- | --- | --- |
| COc1ccc(-n2nc(C(=O)NCC(=O)Nc3nc4ccc(OC)cc4s3)c3ccccc3c2=O)cc1 [IWP-1] | consistently more effective than IWR-4 | – | – | – | – | – | – | – | – | – | – | – |
| Cc1ccc2nc(NC(=O)CSc3nc4c(c(=O)n3-c3ccccc3)SCC4)sc2c1 [IWP-2] | – | failed to do so | decreased | decreased | – | – | – | – | – | – | – | – |
| O=C(Nc1cccc2cccnc12)c1ccc(N2C(=O)[C@@H]3[C@H](C2=O)[C@@H]2C=C[C@H]3C2)cc1 [IWR-1] | – | suppressed fin regeneration | – | decreased | able to regenerate tissue to nearly normal levels after chemical removal | lethargy and decreased appetite | decreased number | inhibit accumulation of β-catenin | can be blocked | decreased | little turn-over of Axin2 | decrease in the expression of Axing |
